In data set [1] the test system is C. albicans.
In a further data set the test system is E. coli. Particulars: 18 h.
In another data set the test system is S. aureus. Particulars: 18 h.
In the next data set the test system is rabbit red blood cells. The data set is classed as cell-based. Particulars: red cells of rabbit, 1 h.
Another data set deals with P. aeruginosa. Particulars: 18 h.
Another data set concerns F. solani. The data set is classed as cell-based. To be noted: 24 h. The protocol:
(§1) The MICs of peptides were determined against the fungi C. albicans (American Type Culture Collection, ATCC) and F. solani (ATCC) by the broth microdilution method. […] F. solani, were cultured on sabouraud dextrose agar plates in incubator at 37° C. To collect conidia following incubation, conidia of F. solani species were harvested and standardized to 1×10^8 spores/ml before performing the experiments. Sabouraud dextrose broth (90 μL) was added to the wells of culture plates. […] The plates were incubated at 37° C. and examined macroscopically after 24 h for the growth of F. solani. Appropriate control wells without any treatment were included in the study. Peptide were considered to be active if the wells appeared clear without any visible growth of F. solani, and the results were expressed as MIC. The assay was performed in four replicates for each concentration.

Data set [2] has as its system C. albicans. Type of data set: cell-based, Candida albicans. Particulars: 42 h. The protocol:
as §1

The test system of another data set is S. epidermidis. Particulars: 18 h.

Converted amounts (≈) assume the structure as drawn. Like-named read-outs stand apart in the source and are kept apart here. Peptide text beside a SMILES is read from it.

With `CC[C@H](C)[C@H](N)C(=O)N[C@H](C(=O)N[C@@H](CCCNC(=N)N)C(=O)N[C@@H](CCCCN)C(=O)N[C@H](C(=O)N[C@H](C(=O)N[C@@H](CCCNC(=N)N)C(=O)N[C@@H](CCCCN)C(N)=O)[C@@H](C)CC)[C@@H](C)CC)[C@@H](C)CC` [Control-all L] (H-IIRKIIRK-NH2; N-terminus assumed), the “MIC C. albicans” value is 500 µg/mL (≈ 482 µM) in the data set with C. albicans [1] and greater than 500 µg/mL in the data set with C. albicans [2]. For the same compound, in the data set with E. coli, the “MIC E. coli” value was greater than 500 µg/mL. Further, the “MIC S. aureus” value against S. aureus was greater than 500 µg/mL. The “HC10, haemolysis concentration 10%: lowest peptide concentration that induces ≧10% haemolysis” value with rabbit red blood cells was greater than 2000 mg/L. In addition, in the data set with P. aeruginosa, the “MIC P aeruginosa” value is greater than 500 µg/mL. Further, the “MIC F. solani” value in the data set with F. solani is greater than 500 µg/mL. Further, the “MIC S. epidermidis” value in the data set with S. epidermidis is greater than 500 µg/mL.

Values taken from patent US9221875B2, “Amphiphilic peptides for treatment of keratitis” (Agency for Science, Technology and Research, priority 2013, dated 2015).
